What was measured:
[1] = In vitro metabolic stability, rat liver microsomes; format: in vitro ADME; conditions: CLint expressed as mL/min/g liver
Protocol: (§1) The objective of this study was to determine metabolic stability of test items in rat and human liver microsomes. Verapamil and dextromethorphan were used as positive controls for microsomal incubation.
(§2) Incubation medium was prepared by combining 11.2 mL of potassium phosphate monobasic and 38.8 mL of potassium phosphate dibasic, diluted to 1 L with water. Cryopreserved microsomes were thawed and kept on ice until use. Microsomes were then diluted in incubation to a protein concentration of 0.56 mg/mL. […]
(§3) NADPH regenerating system solution was prepared by dissolving 1.7 mg of NADP, 7.8 mg of G6P and 6 units of G6P-Dehydrogenase in 1 mL of 2% sodium bicarbonate solution (prepared by dissolving 20 g of NaHCO3 in 1 L of water).
(§4) Test compounds were separately dissolved in DMF to obtain 10 mM stock solutions that were further diluted in water/acetonitrile 50/50 (v/v) to obtain the corresponding 50 μM working solutions. Verapamil and dextromethorphan were dissolved in DMF in order to obtain a 10 mM verapamil solution and 10 mM dextromethorphan solution. These solutions were then diluted in the incubation medium in order to obtain a 50 μM verapamil working solution and a 50 μM dextromethorphan working solution.
(§5) 800 μL-aliquots of NADPH regenerating system were pre-warmed at 37° C. for 5 minutes. 5 μL of 50 µM test compounds, verapamil or dextromethorphan were added to 445 μL of the 0.56 mg/mL microsomes solution and the incubation mixture was pre-warmed in a 96 deep well 2 mL plate (incubation plate) at 37° C. for 5 minutes. The incubation reactions were initiated by adding 50 μL of pre-warmed NADPH regenerating system to the incubation mixtures. 50 μL aliquots were taken from incubation mixtures at: 0, 3, 6, 9, 15, and 30 minutes and the reactions were stopped by adding 100 μL of aceronitrile with the corresponding internal standard. Samples were then diluted with 120 μL of water (final organic solvent percentage at 37%) and centrifuged at 3000 rpm for 10 minutes, prior the LC-MS/MS analysis.
(§6) Metabolic stability was calculated from the peak area ratio of the remaining test compound with internal standard versus time. The intrinsic clearance (CLint) was determined from the first order elimination constant k (min^−1) (obtained from GraphPad by plotting the natural logarithm of the peak area ratio of the remaining test item with internal standard versus time), using the actual volume of the incubation V (mL), the amount of hepatocytes in the incubation M (million cells) and the hepatocellularity number per a liver Hn (120 for human).

[2] = In vitro metabolic stability, human liver microsomes; format: in vitro ADME; conditions: CLint expressed as mL/min/g liver
Protocol: as §1, §2, §3, §4, §5, §6

| Structure (SMILES) | Cli rat [1] | Cli human [2] |
| --- | --- | --- |
| Cc1ccc(Oc2ccc(-n3c(=O)[nH]c4cccnc43)cn2)cc1OC(F)(F)F [Example 4, 3-[6-[4-methyl-3-(trifluoromethoxy)phenoxy]-3-pyridyl]-1H-imidazo[4,5-b]pyridin-2-one] | 0.9 mL/min/g | 0.7 mL/min/g |
| Cc1ccc(Oc2ncc(-n3c(=O)[nH]c4cccnc43)cn2)cc1OC(F)(F)F [Example 32, 3-[2-[4-methyl-3-(trifluoromethoxy)phenoxy]pyrimidin-5-yl]-1H-imidazo[4,5-b]pyridin-2-one] | 0.9 mL/min/g | 0.8 mL/min/g |
| O=c1[nH]c2cccnc2n1-c1cnc(Oc2cccc(OC(F)(F)F)c2)nc1 [Example 17, 3-[2-[3-(trifluoromethoxy)phenoxy]pyrimidin-5-yl]-1H-imidazo[4,5-b]pyridin-2-one] | <0.5 mL/min/g | <0.5 mL/min/g |

— patent US20240327406A1, “POTASSIUM CHANNEL MODULATORS” (Autifony Therapeutics Limited, priority 2021, published 2024)
